Results as given in patent US10100058B2, “Fused heterocyclic compounds as CaM kinase inhibitors” (Gilead Sciences, Inc., priority 2016, dated 2018).

Target: recombinant CaMKIIδ (Homo sapiens (Human), UniProt Q13557)
Assay: CaMKIIδ biochemical assay (HTRF)
Details: 10 pM CaMKIIδ, 110 nM calmodulin, 12 μM ATP, 1 hour; read-out: CAMKIID-HTRF-384V2 (IC50 - nM)
Method: CaMKIIδ Biochemical Assay
The biochemical activity of recombinant CaMKIIδ was measured by monitoring the phosphorylation of a target peptide using Homogenous Time Resolved Fluorescence (HTRF) technology from CisBio Bioassays.

IC50 [nM] | SMILES
0.17 | CCN(CC)[C@@H](C)CNC(=O)c1cc(-c2cnn3ccc(-c4cccs4)nc23)nc(N2CC[C@H](OC)C2)c1 [Example 209, N—((S)-2-(diethylamino)propyl)-2-((S)-3-methoxypyrrolidin-1-yl)-6-(5-(thiophen-2-yl)pyrazolo[1,5-a]pyrimidin-3-yl)isonicotinamide]
18.2 | CCN(CC)[C@@H](C)CNC(=O)c1cc(-c2cnn3ccc(-c4cccs4)nc23)nc(N2CC(Oc3ccc(F)cc3)C2)c1 [Example 210, (S)—N-(2-(diethylamino)propyl)-2-(3-(4-fluorophenoxy)azetidin-1-yl)-6-(5-(thiophen-2-yl)pyrazolo[1,5-a]pyrimidin-3-yl)isonicotinamide]
0.3 | CCN(CC)[C@@H](C)CNC(=O)c1cc(NCc2cc[nH]n2)nc(-c2cnn3ccc(-c4cccs4)nc23)c1 [Example 212, (S)-2-(((1H-pyrazol-3-yl)methyl)amino)-N-(2-(diethylamino)propyl)-6-(5-(thiophen-2-yl)pyrazolo[1,5-a]pyrimidin-3-yl)isonicotinamide]
0.18 | CCN(CC)[C@@H](C)CNC(=O)c1cc(NC2CC2)nc(-c2cnn3ccc(-c4cccs4)nc23)c1 [Example 213, (S)-2-(cyclopropylamino)-N-(2-(diethylamino)propyl)-6-(5-(thiophen-2-yl)pyrazolo[1,5-a]pyrimidin-3-yl)isonicotinamide]
0.18 | CCN(CC)[C@@H](C)CNC(=O)c1cc(-c2cnn3ccc(-c4cccs4)nc23)nc(N2CC(O)(CC)C2)c1 [Example 214, (S)—N-(2-(diethylamino)propyl)-2-(3-ethyl-3-hydroxyazetidin-1-yl)-6-(5-(thiophen-2-yl)pyrazolo[1,5-a]pyrimidin-3-yl)isonicotinamide]
0.22 | CCN(CC)[C@@H](C)CNC(=O)c1cc(-c2cnn3ccc(-c4cccs4)nc23)nc(N2CC(C(C)(C)O)C2)c1 [Example 215, (S)—N-(2-(diethylamino)propyl)-2-(3-(2-hydroxypropan-2-yl)azetidin-1-yl)-6-(5-(thiophen-2-yl)pyrazolo[1,5-a]pyrimidin-3-yl)isonicotinamide]
0.1 | CCN(CC)[C@@H](C)CNC(=O)c1cc(-c2cnn3ccc(-c4cccs4)nc23)nc(N2CC(CO)C2)c1 [Example 216, (S)—N-(2-(diethylamino)propyl)-2-(3-(hydroxymethyl)azetidin-1-yl)-6-(5-(thiophen-2-yl)pyrazolo[1,5-a]pyrimidin-3-yl)isonicotinamide]
0.18 | CCN(CC)[C@@H](C)CNC(=O)c1cc(-c2cnn3ccc(-c4cccs4)nc23)nc(N2CC(O)(C3CC3)C2)c1 [Example 217, (S)-2-(3-cyclopropyl-3-hydroxyazetidin-1-yl)-N-(2-(diethylamino)propyl)-6-(5-(thiophen-2-yl)pyrazolo[1,5-a]pyrimidin-3-yl)isonicotinamide]
0.17 | CCN(CC)[C@@H](C)CNC(=O)c1cc(NCCCOC)nc(-c2cnn3ccc(-c4cccs4)nc23)c1 [Example 218, (S)—N-(2-(diethylamino)propyl)-2-((3-methoxypropyl)amino)-6-(5-(thiophen-2-yl)pyrazolo[1,5-a]pyrimidin-3-yl)isonicotinamide]
0.21 | CCN(CC)[C@@H](C)CNC(=O)c1cc(-c2cnn3ccc(-c4cccs4)nc23)nc(N2CC(O)(C(F)(F)F)C2)c1 [Example 219, (S)—N-(2-(diethylamino)propyl)-2-(3-hydroxy-3-(trifluoromethyl)azetidin-1-yl)-6-(5-(thiophen-2 yl)pyrazolo[1,5-a]pyrimidin-3-yl)isonicotinamide]
0.11 | CCN(CC)[C@@H](C)CNC(=O)c1cc(NCCCO)nc(-c2cnn3ccc(-c4cccs4)nc23)c1 [Example 220, (S)—N-(2-(diethylamino)propyl)-2-((3-hydroxypropyl)amino)-6-(5-(thiophen-2-yl)pyrazolo[1,5-a]pyrimidin-3-yl)isonicotinamide]
0.13 | CCN(CC)[C@@H](C)CNC(=O)c1cc(NCCC(C)(C)O)nc(-c2cnn3ccc(-c4cccs4)nc23)c1 [Example 221, (S)—N-(2-(diethylamino)propyl)-2-((3-hydroxy-3-methylbutyl)amino)-6-(5-(thiophen-2-yl)pyrazolo[1,5-a]pyrimidin-3-yl)isonicotinamide]
0.17 | CCN(CC)[C@@H](C)CNC(=O)c1cc(NC2CCOCC2)nc(-c2cnn3ccc(-c4cccs4)nc23)c1 [Example 222, (S)—N-(2-(diethylamino)propyl)-2-((tetrahydro-2H-pyran-4-yl)amino)-6-(5-(thiophen-2-yl)pyrazolo[1,5-a]pyrimidin-3-yl)isonicotinamide]
0.14 | CCN(CC)[C@@H](C)CNC(=O)c1cc(NCCN2CCOCC2)nc(-c2cnn3ccc(-c4cccs4)nc23)c1 [Example 223, (S)—N-(2-(diethylamino)propyl)-2-((2-morpholinoethyl)amino)-6-(5-(thiophen-2-yl)pyrazolo[1,5-a]pyrimidin-3-yl)isonicotinamide]

Second part, the compound before the results:

SMILES | IC50 [nM]
CCN(CC)[C@@H](C)CNC(=O)c1cc(-c2cnn3ccc(-c4cccs4)nc23)nc(N2CC(NC(=O)N(C)C)C2)c1 [Example 195, (S)—N-(2-(diethylamino)propyl)-2-(3-(3,3-dimethylureido)azetidin-1-yl)-6-(5-(thiophen-2-yl)pyrazolo[1,5-a]pyrimidin-3-yl)isonicotinamide] | 0.28
CCN(CC)[C@@H](C)CNC(=O)c1cc(-c2cnn3ccc(-c4cccs4)nc23)nc(N2CC(NC(=O)C3CC3)C2)c1 [Example 196, (S)-2-(3-(cyclopropanecarboxamido)azetidin-1-yl)-N-(2-(diethylamino)propyl)-6-(5-(thiophen-2-yl)pyrazolo[1,5-a]pyrimidin-3-yl)isonicotinamide] | 0.22
CCN(CC)[C@@H](C)CNC(=O)c1cc(-c2cnn3ccc(-c4cccs4)nc23)nc(N2CC(NS(C)(=O)=O)C2)c1 [Example 197, (S)—N-(2-(diethylamino)propyl)-2-(3-(methylsulfonamido)azetidin-1-yl)-6-(5-(thiophen-2-yl)pyrazolo[1,5-a]pyrimidin-3-yl)isonicotinamide] | 0.09
CCN(CC)[C@@H](C)CNC(=O)c1cc(-c2cnn3ccc(-c4cccs4)nc23)nc(N2CC(NC(C)=O)C2)c1 [Example 198, (S)-2-(3-acetamidoazetidin-1-yl)-N-(2-(diethylamino)propyl)-6-(5-(thiophen-2-yl)pyrazolo[1,5-a]pyrimidin-3-yl)isonicotinamide] | 0.15
CCN(CC)[C@@H](C)CNC(=O)c1cc(N[C@H](C)CO)nc(-c2cnn3ccc(-c4cccs4)nc23)c1 [Example 199, N—((S)-2-(diethylamino)propyl)-2-(((R)-1-hydroxypropan-2-yl)amino)-6-(5-(thiophen-2-yl)pyrazolo[1,5-a]pyrimidin-3-yl)isonicotinamide] | 0.32
CCN(CC)[C@@H](C)CNC(=O)c1cc(N[C@@H](C)CO)nc(-c2cnn3ccc(-c4cccs4)nc23)c1 [Example 200, N—((S)-2-(diethylamino)propyl)-2-(((S)-1-hydroxypropan-2-yl)amino)-6-(5-(thiophen-2-yl)pyrazolo[1,5-a]pyrimidin-3-yl)isonicotinamide] | 0.16
CCN(CC)[C@@H](C)CNC(=O)c1cc(NC[C@H](C)O)nc(-c2cnn3ccc(-c4cccs4)nc23)c1 [Example 201, N—((S)-2-(diethylamino)propyl)-2-(((S)-2-hydroxypropyl)amino)-6-(5-(thiophen-2-yl)pyrazolo[1,5-a]pyrimidin-3-yl)isonicotinamide] | 0.11
CCN(CC)[C@@H](C)CNC(=O)c1cc(NC[C@@H](C)O)nc(-c2cnn3ccc(-c4cccs4)nc23)c1 [Example 202, N—((S)-2-(diethylamino)propyl)-2-(((R)-2-hydroxypropyl)amino)-6-(5-(thiophen-2-yl)pyrazolo[1,5-a]pyrimidin-3-yl)isonicotinamide] | 0.14
CCN(CC)[C@@H](C)CNC(=O)c1cc(N[C@H]2CCOC2)nc(-c2cnn3ccc(-c4cccs4)nc23)c1 [Example 203, N—((S)-2-(diethylamino)propyl)-2-(((S)-tetrahydrofuran-3-yl)amino)-6-(5-(thiophen-2-yl)pyrazolo[1,5-a]pyrimidin-3-yl)isonicotinamide] | 0.18
CCN(CC)[C@@H](C)CNC(=O)c1cc(-c2cnn3ccc(-c4cccs4)nc23)nc(N2CCN(C(C)=O)CC2)c1 [Example 204, (S)-2-(4-acetylpiperazin-1-yl)-N-(2-(diethylamino)propyl)-6-(5-(thiophen-2-yl)pyrazolo[1,5-a]pyrimidin-3-yl)isonicotinamide] | 0.28
CCN(CC)[C@@H](C)CNC(=O)c1cc(-c2cnn3ccc(-c4cccs4)nc23)nc(N2CC(NC)C2)c1 [Example 205, (S)—N-(2-(diethylamino)propyl)-2-(3-(methylamino)azetidin-1-yl)-6-(5-(thiophen-2-yl)pyrazolo[1,5-a]pyrimidin-3-yl)isonicotinamide] | 0.1
CCN(CC)[C@@H](C)CNC(=O)c1cc(-c2cnn3ccc(-c4cccs4)nc23)nc(N2CC(N(C)C)C2)c1 [Example 206, (S)—N-(2-(diethylamino)propyl)-2-(3-(dimethylamino)azetidin-1-yl)-6-(5-(thiophen-2-yl)pyrazolo[1,5-a]pyrimidin-3-yl)isonicotinamide] | 0.1
CCN(CC)[C@@H](C)CNC(=O)c1cc(-c2cnn3ccc(-c4cccs4)nc23)nc(N2CCNCC2)c1 [Example 207, (S)—N-(2-(diethylamino)propyl)-2-(piperazin-1-yl)-6-(5-(thiophen-2-yl)pyrazolo[1,5-a]pyrimidin-3-yl)isonicotinamide] | 0.21
CCN(CC)[C@@H](C)CNC(=O)c1cc(-c2cnn3ccc(-c4cccs4)nc23)nc(N2CC(C(N)=O)C2)c1 [Example 208, (S)-2-(3-carbamoylazetidin-1-yl)-N-(2-(diethylamino)propyl)-6-(5-(thiophen-2-yl)pyrazolo[1,5-a]pyrimidin-3-yl)isonicotinamide] | 0.07
